The values below are quoted from earlier work in US9982018B2, “Amatoxin derivatives” ([…] GMBH, priority 2013, dated 2018).

The target in one series is RNA polymerase II (Homo sapiens, UniProt P24928). The settings on record: read-out: KD of complex with RNA polymerase II.
The conditions of series [1]: naturally occurring amatoxin lacking the γ-hydroxyl group.

One may read the Kd as the equilibrium constant for the complex coming apart. Consider amanitin, for which the Kd on RNA polymerase II is 3 nM. As to amanullin, the toxicity result in series [1] is recorded as “considerably reduced toxicity”.
